# Test results: ChEMBL document CHEMBL1135027, “Tyrosylprotein sulfotransferase inhibitors generated by combinatorial target-guided ligand assembly” (Bioorg Med Chem Lett, 2002)
# Assays:
# [1] = target: T1, Protein-tyrosine sulfotransferase 2 (Homo sapiens, UniProt O60704); experiment: Displacement of [35S]PAPS from human tyrosylprotein sulfotransferase-2 (hTPST-2); set-up: concentration or dose not given beside the values
# T1 sequence (O60704 whole entry): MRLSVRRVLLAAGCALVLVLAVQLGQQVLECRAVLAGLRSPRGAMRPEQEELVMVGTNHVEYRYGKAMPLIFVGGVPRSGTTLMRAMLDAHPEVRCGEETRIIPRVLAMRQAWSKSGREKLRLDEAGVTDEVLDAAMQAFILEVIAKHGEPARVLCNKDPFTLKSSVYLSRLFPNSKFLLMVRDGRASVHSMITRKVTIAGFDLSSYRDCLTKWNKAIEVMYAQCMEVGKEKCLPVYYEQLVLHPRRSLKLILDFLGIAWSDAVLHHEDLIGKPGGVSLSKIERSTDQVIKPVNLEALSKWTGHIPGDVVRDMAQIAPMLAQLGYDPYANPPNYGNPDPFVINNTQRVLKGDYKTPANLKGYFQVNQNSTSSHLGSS
# [2] = target: T1, Protein-tyrosine sulfotransferase 2; experiment: Inhibitory activity of compound was determined against human tyrosylprotein sulfotransferase-2 (hTPST-2) using [35S]PAPS radioligand
# [3] = target: T1, Protein-tyrosine sulfotransferase 2; experiment: Compound was tested for reversible inhibition of human tyrosylprotein sulfotransferase-2 (hTPST-2) at 40 uM for 5 hours and dialyzed; complete reversible inhibition observed.
# [4] = target: T2, estrogen sulfotransferase (Sulfotransferase 1E1) (Homo sapiens, UniProt P49888); experiment: Inhibitory activity of compound was determined against estrogen sulfotransferase at 100 uM
# T2 sequence (P49888 whole entry): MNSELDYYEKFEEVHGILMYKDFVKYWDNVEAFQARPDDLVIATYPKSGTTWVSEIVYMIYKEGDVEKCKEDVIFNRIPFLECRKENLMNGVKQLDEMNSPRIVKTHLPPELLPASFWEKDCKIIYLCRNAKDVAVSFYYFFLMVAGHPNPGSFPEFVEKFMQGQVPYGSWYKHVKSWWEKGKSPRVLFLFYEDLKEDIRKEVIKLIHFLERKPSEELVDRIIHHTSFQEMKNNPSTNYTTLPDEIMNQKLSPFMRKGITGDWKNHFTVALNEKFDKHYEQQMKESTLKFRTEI
# [5] = target: T3, Carbohydrate sulfotransferase 4 (Homo sapiens) (UniProt Q8NCG5); experiment: Inhibitory activity of compound was determined against human high endothelial cell (HEC) GlcNAc-6-ST sulfotransferase at 100 uM; format: cell-based
# T3 sequence (whole entry): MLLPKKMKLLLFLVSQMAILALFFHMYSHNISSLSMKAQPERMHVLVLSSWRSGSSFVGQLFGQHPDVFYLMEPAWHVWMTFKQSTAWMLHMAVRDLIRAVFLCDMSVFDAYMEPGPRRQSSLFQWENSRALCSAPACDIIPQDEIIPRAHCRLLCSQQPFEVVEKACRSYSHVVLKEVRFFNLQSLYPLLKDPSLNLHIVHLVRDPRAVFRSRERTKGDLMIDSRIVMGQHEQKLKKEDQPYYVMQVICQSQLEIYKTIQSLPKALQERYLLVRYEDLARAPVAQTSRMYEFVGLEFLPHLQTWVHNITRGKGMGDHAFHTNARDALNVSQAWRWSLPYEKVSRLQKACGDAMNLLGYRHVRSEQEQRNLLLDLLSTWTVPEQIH
# [6] = target: T4, Sulfotransferase 1E1 (Homo sapiens, UniProt P49888); experiment: Compound was tested for inhibition against estrogen sulfotransferase (EST), a human cytosolic sulfotransferase
# T4 sequence (P49888 whole entry): T2 sequence (P49888 whole entry)
# [7] = Inhibitory activity of compound was determined against bacterial GlcNAc-6-sulfotransferase (NodST) at 100 uM
# [8] = target: T4, Sulfotransferase 1E1; experiment: Compound was tested for inhibition against estrogen sulfotransferase (EST), a human cytosolic sulfotransferase.
# [9] = target: T2, estrogen sulfotransferase (Sulfotransferase 1E1); experiment: Inhibitory activity of compound was determined against human estrogen sulfotransferase at 100 uM
# [10] = target: T1, Protein-tyrosine sulfotransferase 2; experiment: Compound was tested for reversible inhibition of human tyrosylprotein sulfotransferase-2 (hTPST-2) at 40 uM for 5 hours and dialyzed
# [11] = target: T1, Protein-tyrosine sulfotransferase 2; experiment: Inhibitory activity of compound was determined against human tyrosylprotein sulfotransferase-2 (hTPST-2) using [35S]PAPS radioligand at 800 uM
smiles,measurement,setting,value
CO/N=C/c1cc(C)cc(Br)c1O,Inhibition,[1],31%
CO/N=C/c1cc(I)c(O)c(OC)c1,Inhibition,[1],53%
O=c1c(/C=N/OCCCCCO/N=C/c2cc(Br)c(O)c(Br)c2)coc2c(Cl)cc(Cl)cc12,IC50,[2],30 µM
same,Inhibition,[3],complete reversible inhibition observed
same,inhibition at 100 µM,[4],100%
same,inhibition,[5],30%
same,IC50,[6],0.25 µM
same,inhibition,[7],66%
CO/N=C/c1coc2cc(C)c(C)cc2c1=O,Inhibition,[1],35%
CO/N=C/c1coc2ccc(Br)cc2c1=O,Inhibition,[1],85%
O=c1c(/C=N/OCCCCCO/N=C/c2cc(Br)cc([N+](=O)[O-])c2O)coc2c(Cl)cc(Cl)cc12,IC50,[8],3 µM
same,IC50,[2],40 µM
same,inhibition at 100 µM,[9],100%
same,inhibition,[5],7%
same,inhibition at 40 µM,[10],50%
same,inhibition,[7],19%
CO/N=C/c1c(N)oc2ccccc2c1=O,Inhibition,[1],45%
CO/N=C/C(=C/c1ccco1)c1ccccc1,Inhibition,[1],55%
CO/N=C/c1cccc(F)c1O,Inhibition,[1],25%
CO/N=C/C=C/c1ccc([N+](=O)[O-])o1,Inhibition,[1],47%
CO/N=C/c1coc2c(Cl)cc(Cl)cc2c1=O,inhibition at 800 µM,[11],40%
same,IC50,[2],> 1000 µM
CO/N=C/c1cc(I)cc(I)c1O,Inhibition,[1],48%
CO/N=C/c1ccc([N+](=O)[O-])s1,Inhibition,[1],65%
CO/N=C/c1c(O)ccc2ccccc12,Inhibition,[1],34%
CO/N=C/c1ccc(-c2ccc(Cl)cc2)o1,Inhibition,[1],70%
CO/N=C/C(C)=C/c1ccco1,Inhibition,[1],59%
CO/N=C/c1ccc(-c2cccc(Cl)c2)o1,Inhibition,[1],50%
CO/N=C/c1cc(Br)cc([N+](=O)[O-])c1O,IC50,[2],> 1000 µM
CO/N=C/c1cc(Br)c(O)c(Br)c1,IC50,[2],425 µM
CO/N=C/c1cc(OC)c(O)c(OC)c1,Inhibition,[1],37%
